From ChEMBL document CHEMBL5291721, “A preclinical secondary pharmacology resource illuminates target-adverse drug reaction associations of marketed drugs” (Nat Commun, 2023)

Assays:
[1] = target: T1, Alpha-1A adrenergic receptor (Homo sapiens, UniProt P35348)
T1 sequence (P35348 whole entry): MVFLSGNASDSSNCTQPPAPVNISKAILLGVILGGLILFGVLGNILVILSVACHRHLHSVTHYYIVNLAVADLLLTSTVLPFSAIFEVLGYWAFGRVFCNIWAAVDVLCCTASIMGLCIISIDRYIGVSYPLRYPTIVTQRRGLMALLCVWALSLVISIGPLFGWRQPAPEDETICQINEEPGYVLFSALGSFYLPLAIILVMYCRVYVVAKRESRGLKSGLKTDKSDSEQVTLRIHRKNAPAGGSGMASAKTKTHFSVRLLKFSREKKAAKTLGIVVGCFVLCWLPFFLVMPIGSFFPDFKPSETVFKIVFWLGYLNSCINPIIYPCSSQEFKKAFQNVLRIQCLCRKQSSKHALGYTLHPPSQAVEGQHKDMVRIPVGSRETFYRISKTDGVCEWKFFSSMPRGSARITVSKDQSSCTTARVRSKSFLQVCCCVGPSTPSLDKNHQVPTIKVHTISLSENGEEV

[2] = target: T2, Alpha-2B adrenergic receptor (Homo sapiens, UniProt P18089)
T2 sequence (P18089 whole entry): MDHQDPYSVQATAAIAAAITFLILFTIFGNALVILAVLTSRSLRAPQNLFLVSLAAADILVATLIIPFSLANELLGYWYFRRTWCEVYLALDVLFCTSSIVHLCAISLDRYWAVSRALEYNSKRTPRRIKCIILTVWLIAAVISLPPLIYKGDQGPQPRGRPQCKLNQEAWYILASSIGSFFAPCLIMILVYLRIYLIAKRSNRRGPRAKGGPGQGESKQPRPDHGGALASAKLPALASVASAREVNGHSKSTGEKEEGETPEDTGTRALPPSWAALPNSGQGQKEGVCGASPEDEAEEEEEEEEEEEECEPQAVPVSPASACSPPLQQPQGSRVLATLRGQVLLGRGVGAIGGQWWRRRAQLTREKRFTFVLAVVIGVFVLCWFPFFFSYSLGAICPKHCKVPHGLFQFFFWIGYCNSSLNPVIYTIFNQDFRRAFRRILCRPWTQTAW

[3] = target: T3, Muscarinic acetylcholine receptor M1 (Homo sapiens, UniProt P11229); assay type: functional
T3 sequence (P11229 whole entry): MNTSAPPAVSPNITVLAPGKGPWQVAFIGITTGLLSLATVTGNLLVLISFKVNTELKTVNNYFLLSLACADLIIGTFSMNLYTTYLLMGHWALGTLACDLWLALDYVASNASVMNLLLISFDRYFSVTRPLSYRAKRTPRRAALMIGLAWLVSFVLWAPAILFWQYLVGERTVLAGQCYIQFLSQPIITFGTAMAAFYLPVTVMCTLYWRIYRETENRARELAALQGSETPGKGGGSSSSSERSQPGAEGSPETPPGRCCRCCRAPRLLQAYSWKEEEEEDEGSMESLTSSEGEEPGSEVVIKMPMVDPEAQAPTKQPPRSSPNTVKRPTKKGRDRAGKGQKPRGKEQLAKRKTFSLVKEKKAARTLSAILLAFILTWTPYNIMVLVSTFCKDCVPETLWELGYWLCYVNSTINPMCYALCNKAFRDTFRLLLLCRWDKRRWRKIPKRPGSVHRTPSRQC

[4] = target: T4, Cannabinoid receptor 1 (Homo sapiens, UniProt P21554)
T4 sequence (P21554 whole entry): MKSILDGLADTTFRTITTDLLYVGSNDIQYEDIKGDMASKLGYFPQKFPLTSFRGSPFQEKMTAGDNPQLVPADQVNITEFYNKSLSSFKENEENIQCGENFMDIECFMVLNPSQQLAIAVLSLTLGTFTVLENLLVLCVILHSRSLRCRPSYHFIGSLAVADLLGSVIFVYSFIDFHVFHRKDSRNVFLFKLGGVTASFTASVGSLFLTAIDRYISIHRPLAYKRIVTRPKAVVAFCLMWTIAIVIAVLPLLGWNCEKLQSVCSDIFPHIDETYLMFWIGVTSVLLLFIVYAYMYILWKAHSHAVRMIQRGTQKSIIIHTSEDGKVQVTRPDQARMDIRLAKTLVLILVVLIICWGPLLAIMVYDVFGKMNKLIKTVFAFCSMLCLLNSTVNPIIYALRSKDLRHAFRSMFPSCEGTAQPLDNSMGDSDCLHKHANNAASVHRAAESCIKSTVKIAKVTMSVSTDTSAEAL

[5] = target: T5, Estrogen receptor (Homo sapiens, UniProt P03372)
T5 sequence (P03372 whole entry): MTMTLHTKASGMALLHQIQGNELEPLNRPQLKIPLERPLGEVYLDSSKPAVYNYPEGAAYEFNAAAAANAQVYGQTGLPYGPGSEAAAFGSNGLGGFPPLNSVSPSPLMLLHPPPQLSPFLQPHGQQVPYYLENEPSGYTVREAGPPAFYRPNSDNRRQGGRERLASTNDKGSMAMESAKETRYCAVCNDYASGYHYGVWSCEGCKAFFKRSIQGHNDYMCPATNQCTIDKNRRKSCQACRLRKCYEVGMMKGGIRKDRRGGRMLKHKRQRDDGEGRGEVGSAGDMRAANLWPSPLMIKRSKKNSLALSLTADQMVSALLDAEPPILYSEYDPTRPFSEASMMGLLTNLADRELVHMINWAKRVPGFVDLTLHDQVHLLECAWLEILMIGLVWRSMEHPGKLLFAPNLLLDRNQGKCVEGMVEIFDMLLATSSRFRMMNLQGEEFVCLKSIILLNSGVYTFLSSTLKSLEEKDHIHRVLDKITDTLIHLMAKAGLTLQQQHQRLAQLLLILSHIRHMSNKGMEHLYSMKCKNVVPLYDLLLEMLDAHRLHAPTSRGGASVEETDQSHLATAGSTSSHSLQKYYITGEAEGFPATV

[6] = target: Histamine H1 receptor (Homo sapiens, UniProt P35367)
Chain of Histamine H1 receptor (P35367 whole entry): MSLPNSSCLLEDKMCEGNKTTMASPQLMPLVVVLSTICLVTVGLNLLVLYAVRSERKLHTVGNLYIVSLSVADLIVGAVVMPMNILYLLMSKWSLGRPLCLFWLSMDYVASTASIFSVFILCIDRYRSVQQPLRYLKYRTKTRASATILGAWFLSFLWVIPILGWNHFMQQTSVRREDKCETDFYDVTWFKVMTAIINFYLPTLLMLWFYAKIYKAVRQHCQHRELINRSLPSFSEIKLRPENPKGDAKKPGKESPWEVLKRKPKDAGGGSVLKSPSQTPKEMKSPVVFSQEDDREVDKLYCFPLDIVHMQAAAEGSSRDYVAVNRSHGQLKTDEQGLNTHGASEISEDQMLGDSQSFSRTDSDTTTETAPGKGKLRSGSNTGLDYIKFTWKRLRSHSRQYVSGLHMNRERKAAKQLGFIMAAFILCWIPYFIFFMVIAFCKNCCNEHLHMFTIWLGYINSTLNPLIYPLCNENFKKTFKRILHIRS

[7] = target: T6, 5-hydroxytryptamine receptor 1A (Homo sapiens, UniProt P08908); assay type: functional, cell-based
T6 sequence (P08908 whole entry): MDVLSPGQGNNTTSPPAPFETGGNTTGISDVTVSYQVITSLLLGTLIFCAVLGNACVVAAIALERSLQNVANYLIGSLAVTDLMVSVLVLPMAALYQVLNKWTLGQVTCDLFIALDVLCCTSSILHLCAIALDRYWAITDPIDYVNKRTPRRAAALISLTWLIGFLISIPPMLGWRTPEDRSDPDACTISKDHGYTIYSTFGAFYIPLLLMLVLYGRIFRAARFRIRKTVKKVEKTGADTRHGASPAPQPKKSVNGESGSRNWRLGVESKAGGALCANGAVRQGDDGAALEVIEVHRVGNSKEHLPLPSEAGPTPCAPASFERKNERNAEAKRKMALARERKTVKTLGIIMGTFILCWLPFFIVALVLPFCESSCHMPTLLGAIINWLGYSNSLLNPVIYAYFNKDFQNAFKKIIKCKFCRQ

[8] = target: 5-hydroxytryptamine receptor 2A (Homo sapiens, UniProt P28223); assay type: functional, cell-based
Chain of 5-hydroxytryptamine receptor 2A (P28223 whole entry): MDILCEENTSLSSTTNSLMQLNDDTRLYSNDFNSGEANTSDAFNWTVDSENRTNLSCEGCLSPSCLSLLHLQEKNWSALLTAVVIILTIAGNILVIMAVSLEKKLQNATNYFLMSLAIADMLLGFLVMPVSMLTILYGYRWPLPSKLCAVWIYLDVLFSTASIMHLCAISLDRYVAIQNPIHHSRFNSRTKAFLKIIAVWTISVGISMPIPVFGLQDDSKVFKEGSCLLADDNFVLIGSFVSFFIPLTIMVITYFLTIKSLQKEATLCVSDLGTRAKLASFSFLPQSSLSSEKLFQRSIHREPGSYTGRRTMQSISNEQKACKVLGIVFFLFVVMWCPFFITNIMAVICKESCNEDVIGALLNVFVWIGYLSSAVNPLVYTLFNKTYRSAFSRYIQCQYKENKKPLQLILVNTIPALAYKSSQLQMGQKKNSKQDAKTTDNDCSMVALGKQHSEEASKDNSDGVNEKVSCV

[9] = target: Beta-2 adrenergic receptor (Homo sapiens, UniProt P07550); assay type: functional, cell-based
Chain of Beta-2 adrenergic receptor (P07550 whole entry): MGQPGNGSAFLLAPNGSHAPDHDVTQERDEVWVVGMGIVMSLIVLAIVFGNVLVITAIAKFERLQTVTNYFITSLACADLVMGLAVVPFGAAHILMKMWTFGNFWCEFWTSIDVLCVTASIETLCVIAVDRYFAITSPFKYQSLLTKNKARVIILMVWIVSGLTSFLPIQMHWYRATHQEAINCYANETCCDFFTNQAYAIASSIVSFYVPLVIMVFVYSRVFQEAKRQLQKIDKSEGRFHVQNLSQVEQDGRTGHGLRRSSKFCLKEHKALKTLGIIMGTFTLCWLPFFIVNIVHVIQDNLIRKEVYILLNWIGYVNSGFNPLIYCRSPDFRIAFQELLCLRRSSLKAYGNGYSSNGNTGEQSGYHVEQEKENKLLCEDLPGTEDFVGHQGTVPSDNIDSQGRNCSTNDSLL

[10] = target: T4, Cannabinoid receptor 1; assay type: functional, cell-based
[11] = target: T4, Cannabinoid receptor 1; assay type: functional, cell-based; remark: listed apart in the source
[12] = target: Mu-type opioid receptor (Homo sapiens, UniProt P35372); assay: biochemical; assay type: functional
Chain of Mu-type opioid receptor (P35372 whole entry): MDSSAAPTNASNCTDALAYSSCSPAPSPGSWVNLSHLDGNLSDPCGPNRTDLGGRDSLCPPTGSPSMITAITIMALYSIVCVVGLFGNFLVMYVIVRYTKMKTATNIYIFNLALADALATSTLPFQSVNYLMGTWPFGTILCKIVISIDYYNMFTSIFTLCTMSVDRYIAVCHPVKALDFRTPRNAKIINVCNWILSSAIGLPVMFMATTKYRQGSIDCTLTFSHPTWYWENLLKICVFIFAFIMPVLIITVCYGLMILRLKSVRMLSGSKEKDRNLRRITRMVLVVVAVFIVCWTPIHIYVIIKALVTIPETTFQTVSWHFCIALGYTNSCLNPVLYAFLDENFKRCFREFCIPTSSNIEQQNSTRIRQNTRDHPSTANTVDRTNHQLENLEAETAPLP

[13] = target: T1, Alpha-1A adrenergic receptor; assay type: functional, cell-based
Further: assay procedure not described here.

SMILES	AC50 [1] [µM]	AC50 [2] [µM]	AC50 [3] [µM]	AC50 [4] [µM]	AC50 [5] [µM]	AC50 [6] [µM]	AC50 [7] [µM]	AC50 [8] [µM]	AC50 [9] [µM]	AC50 [10] [µM]	AC50 [11] [µM]	AC50 [12] [µM]	AC50 [13] [µM]
O=C(O)c1ccc(NC(=O)[C@H](Cc2ccc(O)cc2)NC(=O)c2ccccc2)cc1 [BENTIROMIDE]	> 10	> 10	> 10	> 10	> 10	> 10	> 10	> 10					
O=C(c1cc(Cc2n[nH]c(=O)c3ccccc23)ccc1F)N1CCN(C(=O)C2CC2)CC1 [OLAPARIB]	> 10	> 10	> 10	> 10	> 30	> 10		> 10					
COc1cc2[nH]c(C)c(CCN3CCN(c4ccccc4)CC3)c2cc1OC [OXYPERTINE]		0.25	> 30			1.9	0.15	> 30	> 30	> 30	> 30	> 30	
COc1cc(C)c(/C=C/C(C)=C/C=C/C(C)=C/C(=O)O)c(C)c1C [ACITRETIN]	> 10	> 10	> 10	> 10	> 30	> 10		> 10		> 30	> 30		> 30
CN1CCN=C(c2ccccc2)c2cc(Cl)ccc21 [MEDAZEPAM]		> 30	> 30			> 30	> 30	> 30	> 30	> 30	> 30	> 30	19
COc1cc(C(=O)OCc2cccc(COC(=O)c3cc(OC)c(OC)c(OC)c3)n2)cc(OC)c1OC [PIROZADIL]		> 30	> 30			> 30	> 30	> 30	> 30	> 30	> 30	> 30	
O=C(NCCO[N+](=O)[O-])c1cccnc1 [NICORANDIL]		> 30	> 30			> 30		> 30	> 30	> 30	> 30	> 30	> 30
C[N+]12CCC(CC1)C(OC(=O)C(O)(c1ccccc1)c1ccccc1)C2 (stereo not given)		> 30	0.0031			> 30		> 30	> 30	> 30	> 30	> 30	> 30
c1ccc(C2(N3CCCCC3)CCCCC2)cc1 [PHENCYCLIDINE]			> 30			> 30	> 30	> 30	> 30	> 30	> 30	> 30	> 30
